Source: PubChem BioAssay AID1259407 (Chemical Carcinogenesis Research Information System (CCRIS), 2018)
Calls of active or inactive are those of the source. The rule behind the calls is not given here.

System: CCRIS mutagenicity, Ames/micronucleus/aberration tests
Assay: CCRIS mutagenicity studies
[1] = Test System: AMES SALMONELLA TYPHIMURIUM, Strain/Indicator: TA98, Metabolic Activation: NONE, Method: PREINCUBATION
[2] = Test System: AMES SALMONELLA TYPHIMURIUM, Strain/Indicator: TA100, Metabolic Activation: NONE, Method: PREINCUBATION

O=Cc1cccc(Cl)c1Cl
mutagenic call [1]: inactive; negative
mutagenic call (Test System: AMES SALMONELLA TYPHIMURIUM, Strain/Indicator: TA98, Metabolic Activation: RAT LIVER S-9, PCB, Method: PREINCUBATION): inactive; negative
mutagenic call [2]: inactive; negative
mutagenic call (Test System: AMES SALMONELLA TYPHIMURIUM, Strain/Indicator: TA100, Metabolic Activation: RAT LIVER S-9, PCB, Method: PREINCUBATION): inactive; negative
mutagenic call (Test System: AMES SALMONELLA TYPHIMURIUM, Strain/Indicator: TA104, Metabolic Activation: NONE, Method: PREINCUBATION): inactive; negative
mutagenic call (Test System: AMES SALMONELLA TYPHIMURIUM, Strain/Indicator: TA104, Metabolic Activation: RAT LIVER S-9, PCB, Method: PREINCUBATION): inactive; negative
mutagenic call (Test System: E.COLI, Strain/Indicator: WP2 UVRA, Metabolic Activation: NONE, Method: PREINCUBATION): inactive; negative
mutagenic call (Test System: E.COLI, Strain/Indicator: WP2 UVRA, Metabolic Activation: RAT LIVER S-9, PCB, Method: PREINCUBATION): inactive; negative

BrCC(Br)C1CCC(Br)C(Br)C1 (stereo not given)
mutagenic call (End Point: IN VITRO CHROMOSOMAL ABERRATIONS, Test System: CHINESE HAMSTER LUNG CELLS (CHL), Metabolic Activation: NONE): inactive; negative
mutagenic call (End Point: IN VITRO CHROMOSOMAL ABERRATIONS, Test System: CHINESE HAMSTER LUNG CELLS (CHL), Metabolic Activation: RAT, LIVER, S-9, KC-400): active; positive (structural changes)
mutagenic call (End Point: IN VITRO CHROMOSOMAL ABERRATIONS, Test System: CHINESE HAMSTER OVARY CELLS (CHO), Metabolic Activation: NONE): inactive; negative
mutagenic call (End Point: IN VITRO CHROMOSOMAL ABERRATIONS, Test System: CHINESE HAMSTER OVARY CELLS (CHO), Metabolic Activation: RAT, LIVER, S-9, AROCLOR 1254): inactive; negative
mutagenic call (End Point: IN VITRO CHROMOSOMAL ABERRATIONS, Test System: CHO CELLS, Metabolic Activation: NONE): inactive; negative
mutagenic call (End Point: IN VITRO CHROMOSOMAL ABERRATIONS, Test System: CHO CELLS, Metabolic Activation: RAT, LIVER, S-9, AROCLOR 1254): inactive; negative
mutagenic call (Test System: AMES SALMONELLA TYPHIMURIUM, Strain/Indicator: TA98, Metabolic Activation: HAMSTER, LIVER, S-9, AROCLOR 1254 (10%), Method: PREINCUBATION): inactive; negative
mutagenic call [1]: inactive; negative
mutagenic call (Test System: AMES SALMONELLA TYPHIMURIUM, Strain/Indicator: TA98, Metabolic Activation: RAT, LIVER, S-9, AROCLOR 1254 (10%), Method: PREINCUBATION): inactive; negative
mutagenic call (Test System: AMES SALMONELLA TYPHIMURIUM, Strain/Indicator: TA100, Metabolic Activation: HAMSTER, LIVER, S-9, AROCLOR 1254 (10%), Method: PREINCUBATION): inactive; negative
mutagenic call [2]: inactive; negative
mutagenic call (Test System: AMES SALMONELLA TYPHIMURIUM, Strain/Indicator: TA100, Metabolic Activation: RAT, LIVER, S-9, AROCLOR 1254 (10%), Method: PREINCUBATION): inactive; negative
mutagenic call (Test System: AMES SALMONELLA TYPHIMURIUM, Strain/Indicator: TA1535, Metabolic Activation: HAMSTER, LIVER, S-9, AROCLOR 1254 (10%), Method: PREINCUBATION): inactive; negative
mutagenic call (Test System: AMES SALMONELLA TYPHIMURIUM, Strain/Indicator: TA1535, Metabolic Activation: NONE, Method: PREINCUBATION): inactive; negative
mutagenic call (Test System: AMES SALMONELLA TYPHIMURIUM, Strain/Indicator: TA1535, Metabolic Activation: RAT, LIVER, S-9, AROCLOR 1254 (10%), Method: PREINCUBATION): inactive; negative
mutagenic call (Test System: AMES SALMONELLA TYPHIMURIUM, Strain/Indicator: TA1537, Metabolic Activation: HAMSTER, LIVER, S-9, AROCLOR 1254 (10%), Method: PREINCUBATION): inactive; negative
mutagenic call (Test System: AMES SALMONELLA TYPHIMURIUM, Strain/Indicator: TA1537, Metabolic Activation: NONE, Method: PREINCUBATION): inactive; negative
mutagenic call (Test System: AMES SALMONELLA TYPHIMURIUM, Strain/Indicator: TA1537, Metabolic Activation: RAT, LIVER, S-9, AROCLOR 1254 (10%), Method: PREINCUBATION): inactive; negative
mutagenic call (Test System: MOUSE LYMPHOMA, Strain/Indicator: L5178Y (TK+/TK-), Metabolic Activation: NONE, Method: SUSPENSION/PLATE): active; positive

c1ccc2c(c1)ccc1cccnc12
mutagenic call (Test System: AMES SALMONELLA TYPHIMURIUM, Strain/Indicator: TA100, Metabolic Activation: RAT, LIVER, S-9, AROCLOR 1254, Method: STANDARD PLATE): inactive; negative
mutagenic call (Test System: AMES SALMONELLA TYPHIMURIUM, Strain/Indicator: TA100, Metabolic Activation: RAT, LIVER, S-9, PCB, Method: STANDARD PLATE): active; positive
mutagenic call (Test System: AMES SALMONELLA TYPHIMURIUM, Strain/Indicator: TA100, Metabolic Activation: RAT, LIVER, S-9, PHENOBARBITAL AND 5,6-BENZOFLAVONE, Method: PREINCUBATION): inactive; negative
